Results as given in PubChem BioAssay (NCI).
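Each compound was tested at five concentrations against cells in 96-well plates for 48 hours. TGI is the concentration that stops growth completely.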

Tests used:
Assay in all cases: inhibition of tumour cell growth, NCI panel, 48 h
HCC-2998 colon = test system: HCC-2998 colon
XF 498 CNS = test system: XF 498 CNS
HCT-116 colon = test system: HCT-116 colon
DMS 273 small cell lung = test system: DMS 273 small cell lung
KM20L2 colon = test system: KM20L2 colon
SF-539 CNS = test system: SF-539 CNS
DLD-1 colon = test system: DLD-1 colon
MALME-3M melanoma = test system: MALME-3M melanoma
HOP-18 NSCLC = test system: HOP-18 NSCLC
SK-MEL-5 melanoma = test system: SK-MEL-5 melanoma
SK-OV-3 ovarian = test system: SK-OV-3 ovarian
SW-620 colon = test system: SW-620 colon
CCRF-CEM leukemia = test system: CCRF-CEM leukemia
SNB-75 CNS = test system: SNB-75 CNS
OVCAR-4 ovarian = test system: OVCAR-4 ovarian
OVCAR-8 ovarian = test system: OVCAR-8 ovarian
TK-10 renal = test system: TK-10 renal
RXF 393 renal = test system: RXF 393 renal
UACC-62 melanoma = test system: UACC-62 melanoma
LOX IMVI melanoma = test system: LOX IMVI melanoma
NCI-H522 lung = test system: NCI-H522 lung
A549 NSCLC = test system: A549 NSCLC
U251 CNS = test system: U251 CNS
HT29 colon = test system: HT29 colon
OVCAR-5 ovarian = test system: OVCAR-5 ovarian
LXFL 529 NSCLC = test system: LXFL 529 NSCLC
HOP-62 NSCLC = test system: HOP-62 NSCLC
HCT-15 colon = test system: HCT-15 colon
NCI-H23 lung = test system: NCI-H23 lung
M14 melanoma = test system: M14 melanoma
UACC-257 melanoma = test system: UACC-257 melanoma
ACHN renal = test system: ACHN renal
UO-31 renal = test system: UO-31 renal
SR leukemia = test system: SR leukemia
NCI-H226 lung = test system: NCI-H226 lung
MOLT-4 leukemia = test system: MOLT-4 leukemia
SNB-19 CNS = test system: SNB-19 CNS
IGROV1 ovarian = test system: IGROV1 ovarian
EKVX NSCLC = test system: EKVX NSCLC
RPMI-8226 leukemia = test system: RPMI-8226 leukemia
K-562 leukemia = test system: K-562 leukemia
SF-295 CNS = test system: SF-295 CNS
SNB-78 CNS = test system: SNB-78 CNS
A498 renal = test system: A498 renal
RXF-631 renal = test system: RXF-631 renal
OVCAR-3 ovarian = test system: OVCAR-3 ovarian
SK-MEL-2 melanoma = test system: SK-MEL-2 melanoma
SF-268 CNS = test system: SF-268 CNS
DMS 114 small cell lung = test system: DMS 114 small cell lung
KM12 colon = test system: KM12 colon
SK-MEL-28 melanoma = test system: SK-MEL-28 melanoma
SN12C renal = test system: SN12C renal
HL-60(TB) leukemia = test system: HL-60(TB) leukemia
NCI-H460 lung = test system: NCI-H460 lung
CAKI-1 renal = test system: CAKI-1 renal
COLO 205 colon = test system: COLO 205 colon
M19-MEL melanoma = test system: M19-MEL melanoma
786-0 renal = test system: 786-0 renal

Measured: TGI

Cc1c(C(=O)C/C(=N/NC(=O)C[n+]2ccccc2)C(=O)Nc2ccccc2)[n+](=O)c2ccccc2n1O
> 100 µM: all assays above
